Results taken from article PMC7948978, “MpeV is a lyase isomerase that ligates a doubly linked phycourobilin on the β-subunit of phycoerythrin I and II in marine Synechococcus” (The Journal of Biological Chemistry, 2020).

Columns and labels:
[1] = target: T1, CpeB (beta-subunit of phycoerythrin I) (Synechococcus sp. RS9916, UniProt Q05Q60); experiment: LC-MS-MS of trypsin-digested purified protein after co-expression with lyases in E. coli; format: binding; conditions: covalent
T1 construct: with C-phycoerythrin class I alpha chain (phycoerythrin I alpha subunit)
Excerpt: (§1) LC-MS-MS of trypsin-digested purified protein after co-expression with lyases in E. coli on CpeB (beta-subunit of phycoerythrin I)

[2] = target: T2, CpeB (beta-subunit of phycoerythrin I) (Synechococcus sp. RS9916, UniProt Q05Q60, C61A); experiment: as above; format: binding; conditions: covalent, same co-expression
T2 construct: with C-phycoerythrin class I alpha chain (phycoerythrin I alpha subunit)
Excerpt: as §1

[3] = target: T3, MpeB (beta-subunit of phycoerythrin II) (Synechococcus sp. RS9916, UniProt Q05Q49); experiment: as above; format: binding; conditions: covalent
T3 construct: with C-phycoerythrin class II alpha chain (phycoerythrin II alpha subunit)
Excerpt: LC-MS-MS of trypsin-digested purified protein after co-expression with lyases in E. coli on MpeB (beta-subunit of phycoerythrin II)

CpeS = target: T4, CpeS (Synechococcus sp. RS9916, UniProt Q05Q42); experiment: co-expression in E. coli; absorbance, zinc-enhanced fluorescence and LC-MS-MS of purified CpeB; format: cell-based; conditions: protein co-substrate CpeB or MpeB, site C82; CpeZ enhances
T4 construct: recombinant, pCpeS plasmid; co-expressed in E. coli with bilin synthesis genes and phycoerythrin subunits; CpeS itself not assayed purified
T4 sequence (Q05Q42 1-178): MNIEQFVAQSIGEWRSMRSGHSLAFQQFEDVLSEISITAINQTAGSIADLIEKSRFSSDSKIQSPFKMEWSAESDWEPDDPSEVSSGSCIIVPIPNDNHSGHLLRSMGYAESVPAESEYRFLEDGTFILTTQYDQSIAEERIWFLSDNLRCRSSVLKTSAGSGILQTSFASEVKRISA

[4] = target: T5, CpeB (beta-subunit of phycoerythrin I) (Synechococcus sp. RS9916, UniProt Q05Q60, C50A); experiment: LC-MS-MS of trypsin-digested purified protein after co-expression with lyases in E. coli; format: binding
T5 construct: with C-phycoerythrin class I alpha chain (phycoerythrin I alpha subunit)
Excerpt: LC-MS-MS of trypsin-digested purified protein after co-expression with lyases in E. coli on CpeB (beta-subunit of phycoerythrin I) | no peptide ions from the C50A mutant coexpressions modified with PUB at the C61 position

[5] = target: T6, CpeB (beta-subunit of phycoerythrin I) (Synechococcus sp. RS9916, UniProt Q05Q60, C50A/C61A); experiment: zinc-enhanced bilin fluorescence of gel bands over anti-CpeB western blot; format: binding; conditions: covalent, site C82, attached by CpeS, co-expressed with CpeA, MpeV, CpeZ and bilin synthesis genes
T6 construct: with C-phycoerythrin class I alpha chain (phycoerythrin I alpha subunit)
Excerpt: zinc-enhanced bilin fluorescence of gel bands over anti-CpeB western blot on CpeB (beta-subunit of phycoerythrin I)

[6] = doubly linked at C50 and C61, attached by MpeV, same co-expression

| β-82 ^b / α-140 ([1]; site C82, attached by CpeS, co-expressed with CpeA, MpeV, CpeZ and bilin synthesis genes) | Bilin added ^a ([2]; site C82, attached by CpeS) | β-165 / β-82 ([3]; site C82, attached by CpeS, co-expressed with MpeA, MpeV, CpeZ and bilin synthesis genes) | Bilin added ^a ([4]; covalent, site C82, attached by CpeS, co-expressed with CpeA, CpeS, MpeV, CpeZ and bilin synthesis genes) | Percentage chromophorylation (% ± SD) ^b [5] | β-50, 61 ^b / β-159 [1, 6] | Bilin added ^a ([2]; single linkage by A ring at C50, attached by MpeV) | β-50, 61 [3, 6] | Bilin added ^a ([4]; covalent attachment at C61 tested, not detected, same co-expression) | SMILES | co-expression in E. coli; absorbance, zinc-enhanced fluorescence and LC-MS-MS of (CpeS) |
| --- | --- | --- | --- | --- | --- | --- | --- | --- | --- | --- |
| 98.2% | 100% | 99.7% | 76.3% | 89.0 ± 12.3 % of WT | – | – | – | – | C=CC1=C(C)C(CC2=NC(=Cc3[nH]c(C=C4NC(=O)C(C)C4=CC)c(C)c3CCC(=O)O)C(CCC(=O)O)=C2C)NC1=O (stereo not shown) [PEB, phycoerythrobilin] | The lyase CpeS is able to attach PEB to CpeB |
| – | – | – | – | – | 29.4% | 7.6% | 84.7% | 0% | C=CC1=C(C)[C@@H](CC2=N/C(=C\c3[nH]c(C[C@H]4NC(=O)C(C)=C4C=C)c(C)c3CCC(=O)O)C(CCC(=O)O)=C2C)NC1=O [PUB, phycourobilin] | – |
